Data taken from US6358947B1 (American Home Products Corporation, priority 1999, dated 2002).
Where two headings read alike, the source gives them in different places.

Columns and labels:
hPR-A = target: T1, hPR-A (Homo sapiens, UniProt P06401); assay: PR receptor binding assay
T1 sequence (P06401 1-769 isoform P06401-2): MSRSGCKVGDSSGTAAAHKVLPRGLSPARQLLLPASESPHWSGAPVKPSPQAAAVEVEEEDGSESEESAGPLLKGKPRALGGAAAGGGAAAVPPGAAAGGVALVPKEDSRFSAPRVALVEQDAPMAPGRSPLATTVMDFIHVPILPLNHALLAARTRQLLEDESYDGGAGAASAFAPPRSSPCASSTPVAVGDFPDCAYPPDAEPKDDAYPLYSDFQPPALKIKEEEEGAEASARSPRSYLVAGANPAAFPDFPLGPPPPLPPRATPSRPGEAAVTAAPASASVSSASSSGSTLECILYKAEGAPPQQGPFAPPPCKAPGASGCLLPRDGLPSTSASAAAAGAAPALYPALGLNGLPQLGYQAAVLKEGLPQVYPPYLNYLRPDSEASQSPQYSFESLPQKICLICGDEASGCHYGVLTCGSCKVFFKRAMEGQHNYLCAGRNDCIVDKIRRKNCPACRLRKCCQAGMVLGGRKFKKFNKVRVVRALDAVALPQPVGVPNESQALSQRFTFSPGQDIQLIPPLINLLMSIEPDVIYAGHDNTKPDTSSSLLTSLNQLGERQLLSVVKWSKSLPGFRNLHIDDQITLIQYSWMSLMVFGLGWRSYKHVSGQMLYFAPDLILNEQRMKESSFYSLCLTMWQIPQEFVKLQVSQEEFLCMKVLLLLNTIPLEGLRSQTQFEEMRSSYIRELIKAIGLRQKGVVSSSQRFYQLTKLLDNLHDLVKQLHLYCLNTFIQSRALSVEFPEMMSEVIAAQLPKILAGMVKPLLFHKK

hAR [1] = target: T2, hAR (Homo sapiens, UniProt P10275); assay: Cotransfection assay, AR agonist; assay type: cell-based; settings: read-out: AR Potency Agon
T2 sequence (P10275 1-920): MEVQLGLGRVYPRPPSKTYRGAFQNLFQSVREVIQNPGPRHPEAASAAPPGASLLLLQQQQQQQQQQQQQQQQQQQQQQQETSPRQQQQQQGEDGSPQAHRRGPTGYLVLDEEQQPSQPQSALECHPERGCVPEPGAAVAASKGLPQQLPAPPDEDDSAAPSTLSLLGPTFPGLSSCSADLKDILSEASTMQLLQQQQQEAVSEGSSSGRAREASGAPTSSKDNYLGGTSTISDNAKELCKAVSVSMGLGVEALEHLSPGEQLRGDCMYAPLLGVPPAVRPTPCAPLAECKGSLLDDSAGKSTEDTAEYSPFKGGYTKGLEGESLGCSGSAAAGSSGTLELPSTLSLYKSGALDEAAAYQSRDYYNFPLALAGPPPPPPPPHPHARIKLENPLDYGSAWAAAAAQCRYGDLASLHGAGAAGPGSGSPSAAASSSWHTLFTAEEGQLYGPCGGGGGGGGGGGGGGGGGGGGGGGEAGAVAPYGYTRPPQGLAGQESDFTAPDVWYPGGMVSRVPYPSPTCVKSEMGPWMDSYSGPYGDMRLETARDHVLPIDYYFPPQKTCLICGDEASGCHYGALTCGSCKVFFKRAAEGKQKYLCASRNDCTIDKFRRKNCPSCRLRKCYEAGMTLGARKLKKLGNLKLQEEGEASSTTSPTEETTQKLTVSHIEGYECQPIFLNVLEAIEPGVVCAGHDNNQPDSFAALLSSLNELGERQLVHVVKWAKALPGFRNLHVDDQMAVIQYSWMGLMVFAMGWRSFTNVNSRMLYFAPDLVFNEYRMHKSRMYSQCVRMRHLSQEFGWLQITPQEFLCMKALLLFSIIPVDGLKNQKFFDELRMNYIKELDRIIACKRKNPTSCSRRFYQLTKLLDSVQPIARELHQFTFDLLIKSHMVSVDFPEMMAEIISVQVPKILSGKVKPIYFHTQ

hAR [2] = target: T2, hAR; assay: Cotransfection assay, AR antagonist; assay type: cell-based; settings: read-out: AR Potency Antag
human PR [3] = target: T3, human PR (Homo sapiens, UniProt P06401); assay: Cotransfection assay, PR antagonist, CV-1 cells; assay type: cell-based; settings: for IC50: Table 1, read-out: PR Antagonist CV-1 Cells Potency; for PR Antagonist CV-1 Cells Efficacy: percent maximal response relative to reference antagonist
T3 sequence (P06401 1-933): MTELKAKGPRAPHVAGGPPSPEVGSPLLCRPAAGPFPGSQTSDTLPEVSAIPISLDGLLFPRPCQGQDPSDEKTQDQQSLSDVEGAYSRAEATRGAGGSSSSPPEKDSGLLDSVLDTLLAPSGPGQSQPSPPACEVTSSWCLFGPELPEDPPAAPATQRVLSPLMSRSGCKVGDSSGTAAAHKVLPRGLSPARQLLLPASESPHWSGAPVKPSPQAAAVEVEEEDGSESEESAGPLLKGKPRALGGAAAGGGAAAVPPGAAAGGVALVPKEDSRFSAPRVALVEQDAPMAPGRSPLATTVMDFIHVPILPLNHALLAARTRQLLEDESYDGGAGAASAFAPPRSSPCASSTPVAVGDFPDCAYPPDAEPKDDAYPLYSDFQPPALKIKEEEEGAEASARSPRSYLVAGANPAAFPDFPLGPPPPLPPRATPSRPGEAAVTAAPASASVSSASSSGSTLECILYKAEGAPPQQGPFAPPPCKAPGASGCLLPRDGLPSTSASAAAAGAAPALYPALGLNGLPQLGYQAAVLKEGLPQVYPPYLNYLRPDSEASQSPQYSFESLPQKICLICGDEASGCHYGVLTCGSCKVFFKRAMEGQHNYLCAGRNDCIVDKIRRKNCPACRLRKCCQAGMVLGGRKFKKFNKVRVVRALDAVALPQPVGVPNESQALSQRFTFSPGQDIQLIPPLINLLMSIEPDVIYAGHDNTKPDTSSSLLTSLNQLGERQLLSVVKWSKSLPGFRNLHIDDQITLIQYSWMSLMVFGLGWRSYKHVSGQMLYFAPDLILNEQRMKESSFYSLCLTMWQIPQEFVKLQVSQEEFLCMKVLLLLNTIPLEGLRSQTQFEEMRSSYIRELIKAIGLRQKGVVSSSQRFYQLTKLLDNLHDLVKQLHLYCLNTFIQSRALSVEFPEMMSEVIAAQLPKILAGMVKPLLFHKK

human PR [4] = target: T3, human PR; assay: Cotransfection assay, PR agonist, CV-1 cells; assay type: cell-based; settings: for PR Agonist CV-1 Cells Efficacy: percent maximal response relative to reference agonist
[5] = CV-1 cells, Table 1, read-out: PR Agonist CV-1 Cells Potency

SMILES	Ki (hPR-A)	EC50 (hAR [1])	IC50 (hAR [2])	IC50 (human PR [3])	PR Antagonist CV-1 Cells Efficacy (human PR [3])	EC50 (human PR [4]; [5])	PR Agonist CV-1 Cells Efficacy (human PR [4]; CV-1 cells)	EC50 (human PR [4]; Table 2, read-out: PR Potency Agon)
CC1(C)OC(=O)Nc2ccc3c(c21)COc1c(F)cccc1-3 [Compound 14, 7-Fluoro-4,4-dimethyl-5H-chromeno[3,4-f]-1,3-benzo[d]oxazin-2-one]	0.172 µM	> 10 µM	0.2 µM	0.025 µM	95%	2.5 µM	30%	
CC1(C)OC(=O)Nc2ccc3c(c21)COc1c(F)cc(C=O)cc1-3 [Compound 24, 7-fluoro-9-formyl-4,4-dimethyl-5H-chromeno[3,4-f]-1,3-benzo[d]oxazin-2-one]	0.181 µM	> 10 µM	0.13 µM	0.098 µM	84%	> 10 µM	na (na = not active (i.e. efficacy of <20 and potency of >10,000))	> 10 µM
CC1(C)OC(=O)Nc2ccc3c(c21)COc1c(F)cc(C=NO)cc1-3 [Compound 25, 7-fluoro-9-hydroxyiminomethyl-4,4-dimethyl-5H-chromeno[3,4-f]-1,3-benzo[d]oxazin-2-one]	0.065 µM	> 10 µM	0.1 µM	0.023 µM	87%	0.623 µM	46%	

These reach a lower Ki (hPR-A). Values come first.

Ki (hPR-A)	EC50 (hAR [1])	IC50 (hAR [2])	IC50 (human PR [3])	PR Antagonist CV-1 Cells Efficacy (human PR [3])	EC50 (human PR [4]; [5])	PR Agonist CV-1 Cells Efficacy (human PR [4]; CV-1 cells)	EC50 (human PR [4]; Table 2, read-out: PR Potency Agon)	SMILES
0.017 µM	> 10 µM	1 µM	0.02 µM	80%	0.5 µM	30%		CC1(C)OC(=O)Nc2ccc3c(c21)COc1c(F)cc(Br)cc1-3 [Compound 20, 9-Bromo-7-fluoro-4,4-dimethyl-5H-chromeno[3,4-f]-1,3-benzo[d]oxazin-2-one]
0.02 µM	> 10 µM	0.3 µM	0.016 µM	68%	1 µM	60%		CC1(C)OC(=O)Nc2ccc3c(c21)COc1c(F)cc(C#N)cc1-3 [Compound 26, 9-cyano-7-fluoro-4,4-dimethyl-5H-chromeno[3,4-f]-1,3-benzo[d]oxazin-2-one]
